Test results reported in US12595478B2, “Crispr-Cas systems having destabilization domain” (THE BROAD INSTITUTE, INC., priority 2016, dated 2026).

Key:
ER50.SaCas9.ER50 = ER50.SaCas9.ER50 (Homo sapiens, UniProt P03372, G521R/L384M/M421G/N519S/T371A/Y537S); details: cells expressing ER50.SaCas9.ER50 treated with 40HT
From the text: Assessment of dose-responsiveness of DD-regulated SaCas9 gene editing activity.

ER50.MS2.p65.HSF1 = ER50.MS2.p65.HSF1 (Homo sapiens, UniProt P03372, G521R/L384M/M421G/N519S/T371A/Y537S); details: targeted to ASCL1; increasing concentrations of 40HT, 18 h, qPCR
From the text: Multidimensional ‘chemical’ control of endogenous transcript levels. […] DHFR.PP7.VP64 was targeted to ILIRN, and ER50.MS2.p65.HSF1 was targeted to ASCL1. […] Error bars represent s.e.m. from biological replicates (n=3; a,c) or ±s.d. across technical replicates (n=4; b,d).

ER50.Cas9.ER50 = experiment: Cas9-mediated eGFP knockout (eGFP disruption) in U20S.eGFP-PEST cells nucleofected with ER50.Cas9.ER50; type: cell-based; details: increasing concentrations 0.5-1000 nM, 48 h
From the text: FIG. 3A-3B. […] (a) Representative images of conditional control of Cas9-mediated eGFP knockout in U20S.eGFP-PEST cells. […] Error bars represent standard deviation from biological replicates (n=6).

[1] = tested on: engineered Cas9 system comprising a functionalized guide with DHFR destabilization domain; experiment: Induction of ASCL1 mRNA by engineered DD-Cas9 SAM with stabilizing ligand (FIG. 11); type: cell-based; details: cells transiently transfected with DD-Cas9 SAM, treated with stabilizing ligand
Procedure: FIG. 11. […] Cells were transiently transfected with engineered DD-Cas9 SAM and ASCL1 mRNA was measured. Compared to untransfected cells, DD-Cas9-SAM induced expression of ASCL1 mRNA is observed.

[2] = biological target: engineered Cas9-SAM system comprising a DD (ER50) (Homo sapiens, UniProt P03372, G521R/L384M/M421G/N519S/T371A/Y537S); details: ligand 4HT
human FKBP12 = details: FKBP12 mutant DD; cited from earlier work
Drosophila = experiment: TMP-controlled gene drive in Drosophila for green body color; type: in vivo; details: in the presence of TMP, wt Cas9 for comparison, DMSO control ~50% (Mendelian inheritance)
DHFR = experiment: Binding of photocaged TMP derivative to DHFR; details: before exposure to light (NVOC group attached)
[3] = tested on: temperature-sensitive mutant of mammalian DHFR (DHFRts); details: cells expressing DHFRts; cited from earlier work
[4] = tested on: human embryonic stem cells (hESCs); experiment: Mutagenic NHEJ by double nickase in human embryonic stem cells; type: cell-based; details: Cas9-D10A and two gRNAs targeted to different strands at the same location, data not shown
From the text: In some embodiments, a vector comprises a regulatory element operably linked to an enzyme-coding sequence encoding a CRISPR protein (i.e. CRISPR/Cas system effector or CRISPR effector). […] The CRISPR enzyme is Cas9, and may be Cas9 from S. pyogenes or S. pneumoniae. In some embodiments, the CRISPR enzyme directs cleavage of one or both strands at the location of a target sequence, such as within the target sequence and/or within the complement of the target sequence. In some embodiments, the CRISPR enzyme directs cleavage of one or both strands within about 1, 2, 3, 4, 5, 6, 7, 8, 9, 10, 15, 20, 25, 50, 100, 200, 500, or more base pairs from the first or last nucleotide of a target sequence. In some embodiments, a vector encodes a CRISPR enzyme that is mutated to with respect to a corresponding wild-type enzyme such that the mutated CRISPR enzyme lacks the ability to cleave one or both strands of a target polynucleotide containing a target sequence. […] In some embodiments, a Cas9 nickase may be used in combination with guide sequenc(es), e.g., two guide sequences, which target respectively sense and antisense strands of the DNA target. This combination allows both strands to be nicked and used to induce NHEJ.

dystrophin = details: average, across 48 weeks; cited from earlier work

ER50.MS2.p65.HSF1, sequence (P03372 with tags, fused parts or gaps T371A/L384M/M421G/N519S/G521R/Y537S limits assumed): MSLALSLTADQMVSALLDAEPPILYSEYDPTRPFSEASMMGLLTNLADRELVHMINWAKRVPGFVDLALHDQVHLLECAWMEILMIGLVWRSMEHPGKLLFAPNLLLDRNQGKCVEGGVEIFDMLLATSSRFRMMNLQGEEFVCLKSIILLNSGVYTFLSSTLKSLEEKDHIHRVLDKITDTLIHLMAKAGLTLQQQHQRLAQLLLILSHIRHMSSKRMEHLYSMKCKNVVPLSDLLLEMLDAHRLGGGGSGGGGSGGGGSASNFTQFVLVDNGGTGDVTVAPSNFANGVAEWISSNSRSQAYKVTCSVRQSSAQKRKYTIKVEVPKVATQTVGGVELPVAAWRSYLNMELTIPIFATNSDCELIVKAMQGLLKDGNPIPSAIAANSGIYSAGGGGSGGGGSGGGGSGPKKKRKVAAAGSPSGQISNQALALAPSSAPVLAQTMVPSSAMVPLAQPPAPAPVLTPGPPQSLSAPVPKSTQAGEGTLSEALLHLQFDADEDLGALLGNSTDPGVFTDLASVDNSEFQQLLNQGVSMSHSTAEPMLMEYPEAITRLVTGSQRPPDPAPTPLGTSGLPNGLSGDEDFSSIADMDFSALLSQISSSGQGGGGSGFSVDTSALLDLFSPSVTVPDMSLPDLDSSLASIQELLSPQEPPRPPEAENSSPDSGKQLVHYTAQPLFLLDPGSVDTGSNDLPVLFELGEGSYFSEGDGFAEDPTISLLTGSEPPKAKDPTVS
engineered Cas9-SAM system comprising a DD (ER50), sequence (P03372 305-549 T371A/L384M/M421G/N519S/G521R/Y537S limits assumed): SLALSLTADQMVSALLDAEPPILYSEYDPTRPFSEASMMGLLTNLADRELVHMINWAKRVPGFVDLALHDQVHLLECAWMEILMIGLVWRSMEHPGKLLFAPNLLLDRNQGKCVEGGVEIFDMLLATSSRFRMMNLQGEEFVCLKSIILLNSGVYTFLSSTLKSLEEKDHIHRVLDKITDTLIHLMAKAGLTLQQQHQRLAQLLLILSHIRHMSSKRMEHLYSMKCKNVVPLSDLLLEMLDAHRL
ER50.SaCas9.ER50, sequence (P03372 305-549 T371A/L384M/M421G/N519S/G521R/Y537S limits assumed): as above

4-hydroxytamoxifen [40HT]
nuclease activity (indel activity, Surveyor assay) (ER50.SaCas9.ER50): dose dependent increase
endogenous gene upregulation (dose response) (ER50.MS2.p65.HSF1): Highly dose-responsive
genome editing (dosability) (ER50.Cas9.ER50): High dosability
ASCL1 mRNA [1]: significant increase
SAM-dependent expression of ASCL1 mRNA [2]: Increased

CC[C@H](C(=O)N1CCCC[C@H]1C(=O)O[C@H](CCc1ccc(OC)c(OC)c1)c1cccc(OCCN2CCOCC2)c1)c1cc(OC)c(OC)c(OC)c1 [Shield-1]
binding to and stabilization of the DD (human FKBP12): dose-dependent manner

COc1cc(Cc2cnc(N)nc2N)cc(OC)c1OC [TMP, trimethoprim]
SpCas9-mediated knockout of the ebony gene (DHFR-SpCas9-DHFR; TMP dose dependence): Dose-dependent
time post TMP removal from the fly food within which % ebony knockout is lowered (DHFR-SpCas9-DHFR; TMP removal from the fly food): ≤ 24 h
inheritance of the green-body color (Drosophila): 84%

COc1cc(COC(=O)Nc2ncc(Cc3cc(OC)c(OC)c(OC)c3)c(N)n2)c([N+](=O)[O-])cc1OC [TMP-NVOC]
binding to DHFR (DHFR): prevents photocaged TMP-NVOC from binding to DHFR

CN(Cc1cnc2nc(N)nc(N)c2n1)c1ccc(C(=O)N[C@@H](CCC(=O)O)C(=O)O)cc1 [methotrexate]
degradation of DHFRts [3]: inhibited degradation of the protein partially

double nickase: Cas9-D10A and two gRNAs targeted to different strands at the same location
efficiency of inducing mutagenic NHEJ relative to nuclease (regular Cas9 without D10 mutation) [4]: about 50%

eteplirsen
dystrophin positive fibers compared to baseline (dystrophin): 47%
